{
  "source": "patent US7378114B2",
  "about": "“Method for producing soluble composition containing isoflavones” (Fuji Oil Company, Limited, priority 2001, dated 2008)",
  "origin": "cited, not measured here",
  "conditions": "under 25° C.; according to the literature; per 100 g solvent",
  "data": [
    {"smiles": "O=c1c(-c2ccccc2)coc2ccccc12", "note": "[isoflavone]", "values": [
      {"measurement": "solubility in water", "value": "0.002 to 0.003", "unit": "g"}
    ]}
  ]
}
